From ChEMBL document CHEMBL1201862, “PubChem BioAssay data set” (2004)
Calls of active or inactive are those of the source.

Experiments:
[1] = biological target: T1, Sentrin-specific protease 8 (Homo sapiens, UniProt Q96LD8); format: functional
T1 sequence (Q96LD8 whole entry): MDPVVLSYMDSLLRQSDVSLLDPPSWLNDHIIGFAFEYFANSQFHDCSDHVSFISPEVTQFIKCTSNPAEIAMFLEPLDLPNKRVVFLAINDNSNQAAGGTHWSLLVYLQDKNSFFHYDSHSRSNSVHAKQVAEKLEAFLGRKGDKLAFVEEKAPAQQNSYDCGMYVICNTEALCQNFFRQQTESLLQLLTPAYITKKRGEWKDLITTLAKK

[2] = biological target: T2, Sentrin-specific protease 6 (Homo sapiens, UniProt Q9GZR1); test: SAR Analysis of small molecule inhibitors of Sentrin-specific protease 6 (SENP6) using a Luminescent assay. [Related pubchem assays (depositor defined):AID2582, AID2599]; format: functional
T2 sequence (Q9GZR1 whole entry): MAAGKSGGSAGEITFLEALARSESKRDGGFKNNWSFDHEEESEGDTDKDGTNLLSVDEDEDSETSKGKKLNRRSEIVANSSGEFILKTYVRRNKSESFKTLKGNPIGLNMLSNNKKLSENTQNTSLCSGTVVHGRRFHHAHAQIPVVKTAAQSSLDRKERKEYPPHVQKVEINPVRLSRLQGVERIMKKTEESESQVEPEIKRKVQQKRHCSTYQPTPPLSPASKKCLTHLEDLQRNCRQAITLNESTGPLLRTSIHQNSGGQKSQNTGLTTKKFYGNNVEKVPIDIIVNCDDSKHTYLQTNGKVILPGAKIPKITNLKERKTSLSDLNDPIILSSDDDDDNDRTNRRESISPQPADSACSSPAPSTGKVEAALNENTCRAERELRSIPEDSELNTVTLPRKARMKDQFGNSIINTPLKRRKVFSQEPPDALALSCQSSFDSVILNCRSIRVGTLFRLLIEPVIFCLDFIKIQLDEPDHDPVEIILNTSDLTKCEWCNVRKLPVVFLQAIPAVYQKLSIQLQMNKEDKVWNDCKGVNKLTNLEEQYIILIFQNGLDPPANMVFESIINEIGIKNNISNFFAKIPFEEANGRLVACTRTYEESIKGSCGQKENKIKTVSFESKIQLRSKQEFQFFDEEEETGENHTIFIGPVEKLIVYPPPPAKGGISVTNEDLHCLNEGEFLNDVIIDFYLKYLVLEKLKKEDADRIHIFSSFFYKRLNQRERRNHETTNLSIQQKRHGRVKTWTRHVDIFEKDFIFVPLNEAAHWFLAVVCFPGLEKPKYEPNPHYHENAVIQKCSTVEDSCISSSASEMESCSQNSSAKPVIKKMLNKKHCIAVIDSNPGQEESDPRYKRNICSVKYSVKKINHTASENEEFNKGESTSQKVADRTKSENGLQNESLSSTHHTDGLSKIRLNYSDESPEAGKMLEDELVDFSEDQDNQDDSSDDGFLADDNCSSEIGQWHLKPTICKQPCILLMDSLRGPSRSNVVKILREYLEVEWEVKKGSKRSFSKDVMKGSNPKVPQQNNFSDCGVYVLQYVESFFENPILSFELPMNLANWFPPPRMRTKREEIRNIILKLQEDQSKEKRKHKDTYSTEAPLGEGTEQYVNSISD

[3] = biological target: T3, RNA-binding protein pos-1 (Caenorhabditis elegans, UniProt G5EF15); test: disruptors of C. elegans POS-1 RNA interaction – biochemical, fluorescence polarization, dose response (AID 1964);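 note: purified POS-1 fused to maltose binding protein made in E. coli; potency of compounds blocking POS-1 binding to fluorescent RNA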
T3 sequence (G5EF15 whole entry): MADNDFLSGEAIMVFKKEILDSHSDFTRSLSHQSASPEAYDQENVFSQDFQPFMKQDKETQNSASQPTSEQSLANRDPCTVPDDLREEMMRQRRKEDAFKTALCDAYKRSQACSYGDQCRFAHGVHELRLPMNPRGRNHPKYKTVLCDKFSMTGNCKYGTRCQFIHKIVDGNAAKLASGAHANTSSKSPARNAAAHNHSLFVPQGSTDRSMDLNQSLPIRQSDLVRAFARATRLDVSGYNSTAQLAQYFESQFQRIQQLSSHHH

Hexokinase HKDC1 = biological target: T4, Hexokinase HKDC1 (Homo sapiens, UniProt Q2TB90); test: SAR analysis of small molecule inhibitors of hexokinase domain containing I (HKDC1). [Related pubchem assays (depositor defined):AID493160, AID493190]; format: functional
T4 sequence (Q2TB90 whole entry): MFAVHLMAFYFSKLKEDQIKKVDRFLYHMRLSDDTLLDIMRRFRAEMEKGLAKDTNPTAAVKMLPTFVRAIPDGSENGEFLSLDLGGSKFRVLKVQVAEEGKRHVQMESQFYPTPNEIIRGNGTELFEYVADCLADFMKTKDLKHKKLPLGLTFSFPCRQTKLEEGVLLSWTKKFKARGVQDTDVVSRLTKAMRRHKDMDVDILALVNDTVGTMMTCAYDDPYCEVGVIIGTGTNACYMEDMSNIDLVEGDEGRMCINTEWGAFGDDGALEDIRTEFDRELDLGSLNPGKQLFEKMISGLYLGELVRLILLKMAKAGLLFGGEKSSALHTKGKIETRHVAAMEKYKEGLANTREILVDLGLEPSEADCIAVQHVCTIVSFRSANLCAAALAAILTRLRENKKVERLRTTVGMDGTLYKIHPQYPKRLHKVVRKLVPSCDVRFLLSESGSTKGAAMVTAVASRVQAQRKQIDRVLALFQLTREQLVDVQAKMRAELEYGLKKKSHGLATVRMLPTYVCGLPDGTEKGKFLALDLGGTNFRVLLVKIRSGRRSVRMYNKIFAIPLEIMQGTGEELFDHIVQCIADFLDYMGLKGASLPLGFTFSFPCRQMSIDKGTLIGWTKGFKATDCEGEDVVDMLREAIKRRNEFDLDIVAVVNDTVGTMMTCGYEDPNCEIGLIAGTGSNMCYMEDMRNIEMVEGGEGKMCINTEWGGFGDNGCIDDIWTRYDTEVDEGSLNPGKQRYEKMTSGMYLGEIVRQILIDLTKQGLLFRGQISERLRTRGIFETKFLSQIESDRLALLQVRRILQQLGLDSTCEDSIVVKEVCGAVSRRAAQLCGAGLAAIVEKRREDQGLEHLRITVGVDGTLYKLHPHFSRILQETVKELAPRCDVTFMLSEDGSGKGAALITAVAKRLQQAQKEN

BJ = test: cells; format: functional, cell-based; details: Homo sapiens
[4] = viability of PTEN-deleted HCT116 cells – cell-based, HCT116 PTEN knockout, dose response (AID 1047); format: functional;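 note: HCT116 colon tumor cells with PTEN knocked out; cells exposed to compound for 60 hours before readout; potency for loss of cell viability measured by luminescence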
[5] = DRD fibroblast viability loss – cell-based, non-viral oncogenic, luminescence, dose response (AID 1934); format: functional; details: Homo sapiens

## COc1ccccc1N1C(=O)Cc2ccccc2C1=O
[1]
  IC50: > 100 µM (inactive)

## Oc1ccccc1/C=C/c1noc(-c2ccccc2O)n1
[2]
  IC50: > 99 µM (inactive)

## O=C(O)CSc1cc(NS(=O)(=O)c2ccc(Cl)cc2)c2ccccc2c1O
[3]
  EC50: 36.8 µM (active)
Hexokinase HKDC1
  IC50: 8.9 µM (active)

## Cc1nn(-c2ccccc2)c(Cl)c1CN(C(=O)CCl)c1ccc(Cl)cc1
BJ
  EC50: 2.82 µM (inconclusive)
[4]
  EC50: 4.07 µM (active)
[5]
  EC50: 1.92 µM (active)
